# Like-named read-outs stand apart in the source and are kept apart here.
# Experiments:
# [1] = test system: IRF-Lucia luciferase reporter (ISRE) in THP1-Dual cells; assay: THP1-Dual IRF-Lucia luciferase reporter assay (ISRE activation); format: cell-based, human; details: THP1-Dual; for EC50: Homo sapiens, read-out: THP1 IRF EC50
# Protocol: THP1 Dual (InvivoGen) cell suspensions were cultured in RPMI 1640 (Hyclone, Logan, Utah) supplemented with 10% fetal bovine serum (Hyclone), 100 U/mL Normocin (Invivogen), and 50 U/mL PenStrep (Gibco, Dublin, Ireland) between a density of 7·10^5-2·10^6 cells/mL. Every other passage, media was supplemented with 5 U/mL Blasticidin and 100 U/mL Zeocin to maintain the expression constructs. White, flat-bottom 384-well plates (Greiner, Kremsmunster, Austria, 781080) were seeded with 2.5·10^4 cells/well in a total of 50 μL media containing 5 ng/mL phorbolmyristic acid (PMA) using a Matrix WellMate (Thermo Scientific) dispenser. After 48 hours of incubation at 37° C., media was removed using a BioTek ELx405 CW plate washer set to aspirate and wash each well three times with 65 μL 1×PBS. Plates were reloaded with 50 μL media without PMA and treatments added. Lipopolysaccharide in dimethylsulfoxide (DMSO) was transferred to control wells using a HP D300 microdispenser to a final concentration of 313 ng/mL. Compounds from chemical library plates were copied using a Sciclone (Caliper LifeSciences) mounted with a 384-pin transfer tool to obtain a final concentration of 10 μM. After incubation with treatments for 24 hours, 10 μL of supernatant media from each well was transferred into a white, flat-bottom 384-well plate for luminescence readout and a black-walled, clear flat-bottom 384-well plate for absorbance readout.
# Specifically, to enable screening of novel chemical entities (NCEs) in a larger screening effort, a robust high-throughput cell-based assay system for primary hit identification of ISRE activators based on the above-mentioned target validation was desired. Human ISRE activity was verified using a THP-1 monocyte line containing the NF-κB-SEAP and IRF-Lucia luciferase dual reporter (THP1-Dual; Invivogen) that features two reporter genes, SEAP (secreted embryonic alkaline phosphatase) and Lucia luciferase, thereby enabling the simultaneous study of the NF-κB and IRF signalling pathways. The Lucia luciferase reporter is under the control of an ISG54 (interferon-stimulated gene) minimal promoter in conjunction with five IFN-stimulated response elements. The SEAP gene is driven by an IFN-β minimal promoter fused to five copies of the NF-κB consensus transcriptional response element and three copies of the c-Rel binding site. Both reporter proteins are readily measurable in the cell culture supernatant when using QUANTI-LUC™ and QUANTI-Blue SEAP detection reagents.
# The responsiveness of the human THP-1 Dual cell line was evaluated in an array of assay conditions to obtain sensitive and reproducible results for the activation of IRF and NF-κB reporters. […] All transfer steps are fully automated using high throughput robotic equipment. Briefly, cells are seeded in differentiation medium using a Matrix WellMate fitted with the WellMate Stacker (Thermo Scientific) and incubated at 37° C. with 5% CO2 for 48 h. Following differentiation, cells are washed using a BioTek ELx405 Select CW plate washer and growth medium added with the Matrix WellMate. Programmed control treatments are added to wells using a D300 digital dispenser fitted with T8+ dispense heads (Hewlett Packard) designed to dispense nanoliter quantities of material. Compounds from library plates are added using a pin tool fitted to a Sciclone ALH 3000 Workstation (Caliper Life Sciences) programmed with Maestro v4.4. After treatment, plates are returned to incubators for 24 hours. To measure reporter expression, supernatant is collected using the Sciclone and dispensed into 2 plates: 1) a white 384-well assay plate for Lucia luminescence measurements and 2) a clear-bottom black 384-well assay plate for SEAP absorbance measurements.
# [2] = THP1-Dual cytotoxicity (Cell Titer Glo, ATP); format: cell-based, human; details: human, THP1-Dual cells, read-out: Thp1 cytotox CC50
# Description: FIG. 9C is a CC50 (50% cytotoxic concentration) graph of AV-C dependent IRF activation in THP1-Dual cells, determined with an 8-point dose response experiment. Cell viability was monitored based on quantitation of ATP present, as an indicator of metabolically active cells, where luminescence is proportional to the amount of ATP present, using Cell-Titer Glo (Promega).
# The OTRADI Small Molecule Library of approximately 246,000 diverse compounds (see below for description) was screened using the THP1-Dual based HTS platform described above. All transfer steps in the screen are fully automated, thus reducing variability. Primary screening included a single data point or dose for each molecule. After data normalization was applied for each assay run, “hit” selection was performed on the plates that pass the quality control (QC) criterion. Hits were defined as samples having values above the activity cutoff determined based on noise level of the assay to reduce false positive rates. In the pilot study discussed above this activity value was >3σ above the ISRE mean with the added criteria of NFκB activation being lower than […] from the mean to identify IRF selective compounds. The ratio of ISRE:NFκB activity was also calculated as a selectivity index for prioritizing hit selection. Primary hits underwent secondary screening to determine the 50% effective concentration (EC50) and 50% cytotoxic concentration (CC50) of these agents using an 8-point dose-response curve in the human THP1-Dual cells. Cytotoxicity was measured in the plate using Cell Titer Glo (Promega). Identified candidate compounds were further screened (orthogonal screen) for cross species activity in the validated mouse J774-Dual assay using an 8-point dose-response format to determine EC50 and CC50 values as well as ISRE:NFκB ratios. A general process flow for the experimental design laid out above is depicted at FIG. 12.
# [3] = J774-Dual cytotoxicity; format: cell-based, mouse; details: mouse, J774-Dual cells, read-out: J774 cytotox CC50
# Protocol: The OTRADI Small Molecule Library of approximately 246,000 diverse compounds (see below for description) was screened using the THP1-Dual based HTS platform described above. All transfer steps in the screen are fully automated, thus reducing variability. Primary screening included a single data point or dose for each molecule. After data normalization was applied for each assay run, “hit” selection was performed on the plates that pass the quality control (QC) criterion. Hits were defined as samples having values above the activity cutoff determined based on noise level of the assay to reduce false positive rates. […] The ratio of ISRE:NFκB activity was also calculated as a selectivity index for prioritizing hit selection. Primary hits underwent secondary screening to determine the 50% effective concentration (EC50) and 50% cytotoxic concentration (CC50) of these agents using an 8-point dose-response curve in the human THP1-Dual cells. Cytotoxicity was measured in the plate using Cell Titer Glo (Promega). Identified candidate compounds were further screened (orthogonal screen) for cross species activity in the validated mouse J774-Dual assay using an 8-point dose-response format to determine EC50 and CC50 values as well as ISRE:NFκB ratios. A general process flow for the experimental design laid out above is depicted at FIG. 12.
# [4] = Human Reporter Cell Line, 8-point dose response
Compound,"EC50 [1, 4] [µM]",CC50 ([2]; Human Reporter Cell Line) [µM],CC50 ([3]; Mouse Reporter Cell Line) [µM],EC50 ([1]; Human Reporter Cell Line THP1) [µM],"activation at 25 µM ([1]; 24 h, Human Reporter Cell Line THP1, @25 uM, read-out: THP1 IRF % activation at peak) [%]",CC50 ([2]; Human Reporter Cell Line THP1) [µM],CC50 ([3]; Mouse Reporter Cell Line J774) [µM]
O=C(Nc1ccc(N2CCN(C(=O)c3ccccc3)CC2)cc1)c1ccc(-c2cccnc2)cc1 [NA-53],~1.48,12.3,29.2,,,,
NC(=O)c1cc(NC(=O)c2ccccc2)ccc1N1CCOCC1 [NB-4],,,,~72.1,5.61,> 25,> 25
COC(=O)COc1cccc(NC(=O)c2ccc(NC(=O)c3ccco3)cc2)c1 [NC-1],2.55,27.4,> 25,,,,
Cc1ccc(-c2nc3ncccc3o2)cc1NC(=O)c1cc(Br)ccc1Cl [ND-3],,,,3.14,,30.7,> 25
Cc1ccc(C(=O)Nc2ccc3oc(-c4cccnc4)nc3c2)c(Cl)c1 [ND-4],,,,3.13,,49.3,> 25
COc1ccc(C(=O)Nc2cc(-c3nc4cc(C)cc(C)c4o3)ccc2C)cc1[N+](=O)[O-] [ND-8],,,,2.95,,> 25,> 25
COc1ccc(C(=O)Nc2nc(-c3cc4ccccc4oc3=O)cs2)nc1 [ND-27],,,,4.68,,> 25,> 25
COc1ccc(C(=O)Nc2nc(-c3cc4ccccc4oc3=O)cs2)cn1 [ND-28],,,,~3.3,,> 25,> 25
Cc1ccc(-c2nc3ccccc3o2)cc1NC(=O)c1ccc(C)c([N+](=O)[O-])c1 [ND-30],,,,15.2,,> 25,> 25
Cc1ccc2nc(-c3ccc(C)c(NC(=O)c4ccc(C)c([N+](=O)[O-])c4)c3)oc2c1 [ND-31],,,,~3.14,,22.3,> 25
Cc1cc2nc(-c3ccc(C)c(NC(=O)c4ccc(N5CCCC5)c([N+](=O)[O-])c4)c3)oc2cc1C [ND-34],,,,~11.4,,> 25,> 25
COc1ccc2oc(-c3ccc(C)c(NC(=O)c4ccc(N5CCOCC5)c([N+](=O)[O-])c4)c3)nc2c1 [ND-35],,,,2.13,,35.7,> 25
Cc1cc2nc(-c3ccc(C)c(NC(=O)c4cccc([N+](=O)[O-])c4)c3)oc2cc1C [ND-36],,,,~8.05,,> 25,> 25
COc1cc(C(=O)Nc2cc(-c3nc4ccccc4s3)ccc2C)cc(OC)c1OC [ND-37],,,,11.8,,> 25,> 25
COc1ccc2nc(NC(=O)c3ccc(OC)c([N+](=O)[O-])c3)sc2c1 [ND-39],,,,2.49,,> 25,> 25
COc1ccc(C(=O)Nc2cccc(-c3nc4ncccc4o3)c2)cc1[N+](=O)[O-] [ND-41],,,,2.04,,> 25,> 25
COc1ccc(C(=O)Nc2ccc3oc(-c4cccnc4)nc3c2)cc1[N+](=O)[O-] [ND-43],,,,5.1,,20.3,> 25
COc1ccc(C(=O)Nc2cccc(-c3nc4cc(C)c(C)cc4o3)c2)cc1[N+](=O)[O-] [ND-46],,,,3.22,,13.1,27.9
COc1ccc(C(=O)Nc2cc(-c3nc4cc(C)c(C)cc4o3)ccc2Cl)cc1[N+](=O)[O-] [ND-50],,,,~11.9,,> 25,> 25
O=C(Nc1nc2ccc3scnc3c2s1)c1ccc2ccccc2c1 [ND-58],,,,2.8,,> 25,> 25
COc1ccc(C(=O)Nc2cc(-c3nc4cc(C)c(C)cc4o3)ccc2C)cc1N [ND-60],,,,~6.31,,> 25,> 25
Cc1ccc(-c2nc3ccccc3s2)cc1NC(=O)c1ccc(Cl)c([N+](=O)[O-])c1 [ND-64],,,,7.27,,> 25,> 25
COc1c(Cl)cc(C(=O)Nc2cc(-c3nc4cc(C)c(C)cc4o3)ccc2C)cc1Cl [ND-69],,,,~5.39,,> 25,> 25
Cc1cccc([C@H](C)c2cnc[nH]2)c1C [ND-76],,,,~0.716,,> 25,> 25
COc1ccc2oc(-c3ccc(C)c([N+](=O)[O-])c3)nc2c1 [ND-84],,,,~19.6,,> 25,> 25
COc1ccc(-c2nc3cc(C(C)C)ccc3o2)cc1NC(=O)c1cc(C)cc(C)c1 [ND-91],,,,~5.87,,> 25,> 25

# From patent US20220395500A1, “SMALL MOLECULE ACTIVATORS OF INTERFERON REGULATORY FACTOR 3 AND METHODS OF USE THEREOF” (Neuralexo, Inc., priority 2020, published 2022)
